Data as given in patent US12691070B2, “Cationic lipids and preparation method thereof” (RiboX Therapeutics HK Limited, priority 2023, dated 2026).

Experiments:
[1] = LNP zeta potential (Zetasizer); format: physicochemical; details: LNP with cirRNA (SEQ ID NO: 1)
How it was run: (§1)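 LNPs of ionizable lipid/DSPC/cholesterol/DMG-PEG 2000 (50:10:38.5:1.5) made by microfluidic mixing of luciferase circRNA or mRNA in pH 4.5 acetate with lipids in ethanol (3:1, 12 ml/min), ionizable lipid:nucleotide 15 or 6, then dialyzed against PBS. Size, PDI (DLS) and zeta potential on Zetasizer; encapsulation by Ribogreen ± Triton X-100.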

[2] = LNP size and polydispersity index (PDI) by dynamic light scattering; format: physicochemical; details: LNP with cirRNA (SEQ ID NO: 1); for Size: in nm (unit assumed)
How it was run: as §1

RAW 264.7 cells [3] = test: In vitro expression of firefly-luciferase, RAW 264.7; format: cell-based; details: cirRNA (SEQ ID NO: 1) LNPs; firefly-luciferase luminescence; RAW 264.7 cells
How it was run: (§2)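 Cells were transfected with firefly-luciferase-encoding RNA-LNPs at 100 ng/mL. After 72 hours they were washed and lysed, and luciferase activity in the lysates was read by luminometry.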

Hep G2 cells [4] = test: In vitro toxicity (CellTiter-Glo cell viability), Hep G2; format: cell-based; details: cirRNA (SEQ ID NO: 1) LNPs; Hep G2 cells;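 also: percent of untreated cells luminescence signal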
How it was run: (§3)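 First, cells receive RNA-LNPs at 1 μg/mL by transfection. After 72 hours, CellTiter-Glo reagent is added per kit protocol. Luminescence is then read and converted to cell viability.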

[5] = RNA encapsulation efficacy by Quant-IT Ribogreen kit; format: physicochemical; details: LNP with cirRNA (SEQ ID NO: 1)
How it was run: as §1

BALB/C mice = test: In vivo expression, whole-body luminescence (IVIS); details: cirRNA (SEQ ID NO: 1) LNPs, BALB/C mice
Description: 6-8 week old, female BALB/C mice were injected with 0.05 mg*kg-1 of RNA-LNPs encoding for firefly-luciferase by intravenous injection. At 6 hours post injection, animals were intraperitoneally injected with 15 mg/ml of Luciferin substrate and whole-body luminescence was determined by a bioluminescent in vivo imaging system (IVIS).

RAW 264.7 cells [6] = test: In vitro toxicity (CellTiter-Glo cell viability), RAW 264.7; format: cell-based; details: cirRNA (SEQ ID NO: 1) LNPs; RAW 264.7 cells;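 also: percent of untreated cells luminescence signal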
How it was run: as §3

Hep G2 cells [7] = test: In vitro expression of firefly-luciferase, Hep G2; format: cell-based; details: cirRNA (SEQ ID NO: 1) LNPs; firefly-luciferase luminescence; Hep G2 cells
How it was run: as §2

SMILES	Zeta (mV) [1]	PDI [2]	Size [2]	In vitro Expression RAW (RAW 264.7 cells [3])	In vitro Viability HepG2 (Hep G2 cells [4])	Encapsulation Efficiency % [5]	In vivo Expression (Whole Body) (BALB/C mice)	In vitro Viability RAW (RAW 264.7 cells [6])	In vitro Expression HepG2 (Hep G2 cells [7])
CCCCCCCCC(CCCCCCCC)OC(=O)CCCCCCCN(CCCCCCCCOC(=O)C(CCCCCC)CCCCCCCC)CCCNCCN(C)C (stereo not drawn) [Lipid 363]	5.356 mV	0.2547	130.7	9.15E+03	112%	92%	2.22E+06	65%	3.17E+05
CCCCCCCCCCC(CCCCCCCC)COC(=O)CCCCCN(CCCCCCCCOC(=O)C(CCCCCC)CCCCCCCC)CCCOC(=O)NCCN(C)C (stereo not drawn) [Lipid 364]	0.2395 mV	0.2481	113.5	9.94E+04	81%	89%	4.73E+06	64%	1.11E+06
CCCCCCCCCCC(CCCCCCCC)COC(=O)CCCCCN(CCCCCC(=O)OCC(CCCCCCCC)CCCCCCCCCC)CCCOC(=O)NCc1ncc[nH]1 (stereo not drawn) [Lipid 365]	−2.341 mV	0.1303	72.69	3.87E+04	109%	92%	1.32E+08	88%	3.17E+05
CCCCCCCCCCC(CCCCCCCC)COC(=O)CCCCCN(CCCCCC(=O)OCC(CCCCCCCC)CCCCCCCCCC)CCCOC(=O)NCCCN(CC)CC (stereo not drawn) [Lipid 366]	−0.4163 mV	0.2572	118.4	2.01E+04	84%	92%	3.26E+06	99%	3.39E+05
CCCCCCCCCCC(CCCCCCCC)COC(=O)CCCCCN(CCCCCC(=O)OCC(CCCCCCCC)CCCCCCCCCC)CCCOC(=O)NCCN1CCN(C)CC1 (stereo not drawn) [Lipid 367]	0.7313 mV	0.2544	131.6	2.48E+04	85%	91%	1.74E+06	90%	5.88E+05
CCCCCCCCCCC(CCCCCCCC)COC(=O)CCCCCN(CCCCCC(=O)OCC(CCCCCCCC)CCCCCCCCCC)CCCOC(=O)NCCNC(C)C (stereo not drawn) [Lipid 368]	3.421 mV	0.2875	130.2	1.18E+05	68%	92%	4.18E+06	67%	1.22E+06
CCCCCCCCCCC(CCCCCCCC)COC(=O)CCCCCN(CCCCCC(=O)OCC(CCCCCCCC)CCCCCCCCCC)CCCOC(=O)NCCN1CCC1 (stereo not drawn) [Lipid 372]	4.685 mV	0.2663	118.2	3.30E+02	42%	92%	1.10E+06	57%	4.98E+03
CCCCCCCCCCC(CCCCCCCC)COC(=O)CCCCCN(CCCCCC(=O)OCC(CCCCCCCC)CCCCCCCCCC)CCCOC(=O)NCCN1CCCCCC1 (stereo not drawn) [Lipid 373]	−3.695 mV	0.2353	92.65	2.32E+04	63%	92%	5.62E+06	91%	5.98E+04
CCCCCCCCC(CCCCCC)C(=O)OCCCCCCCCN(CCCCCCCCOC(=O)C(CCCCCC)CCCCCCCC)CCCOC(=O)NCCN1CCN(C)CC1 (stereo not drawn) [Lipid 377]	2.594 mV	0.2338	112.8	1.05E+05	71%	93%	8.84E+06	85%	2.55E+06
CCCCCCCCC(CCCCCC)C(=O)OCCCCCCCCN(CCCCCCCCOC(=O)C(CCCCCC)CCCCCCCC)CCCOC(=O)NCCCN(C)C (stereo not drawn) [Lipid 378]	6.729 mV	0.2637	130.6	6.58E+05	26%	93%	8.79E+06	75%	3.39E+06
CCCCCCCCC(CCCCCC)C(=O)OCCCCCCCCN(CCCCCCCCOC(=O)C(CCCCCC)CCCCCCCC)CCCOC(=O)NCCN1CCCC1 (stereo not drawn) [Lipid 379]	3.38 mV	0.1919	117.2	1.60E+06	45%	92%	2.86E+07	72%	1.16E+07
CCCCCCCCC(CCCCCC)C(=O)OCCCCCCCCN(CCCCCCCCOC(=O)C(CCCCCC)CCCCCCCC)CCCOC(=O)NCCN1CCC1 (stereo not drawn) [Lipid 382]	4.75 mV	0.2452	145.3	5.69E+04	42%	94%	4.22E+06	84%	3.97E+05
CCCCCCCCC(CCCCCC)C(=O)OCCCCCCCCN(CCCCCCCCOC(=O)C(CCCCCC)CCCCCCCC)CCCNCCN(C)C (stereo not drawn) [Lipid 384]	8.213 mV	0.2423	135.9	3.15E+05	81%	96%	1.15E+07	88%	2.57E+06
CCCCCCCCC(CCCCCC)C(=O)OCCCCCCCCN(CCCCCCCCOC(=O)C(CCCCCC)CCCCCCCC)CCCNCCCN(CC)CC (stereo not drawn) [Lipid 385]	11.28 mV	0.2458	159	1.37E+04	74%	94%	1.79E+06	80%	1.31E+05
